The source of these data is patent EP0722733A1, “BLOOD VESSEL THICKENING INHIBITOR AND SMOOTH MUSCLE FIBER MIGRATION INHIBITOR EACH CONTAINING 7-THIAPROSTAGLANDIN E 1? COMPOUND AS ACTIVE INGREDIENT” (TEIJIN LIMITED, priority 1993, dated 1995).

SMILES strings stand for the structures.

Series [1] relates to vascular smooth muscle cells derived from normal human arteries. The experiment in a line: Suppression of PDGF-mediated migration of human vascular smooth muscle cells in vitro (Transwell chamber). It counts as cell-based. As to conditions: human PDGF 10 ng/ml, 6 hours; for No. of wandering cells: average cell count of five fields ± standard deviation, control 86.4±20.1. As to the method:
To investigate the activity of the tested compound to inhibit cell migration, the migrated cells mediated by human platelet derived growth factor (PDGF) were measured in the following way using the vascular smooth muscle cells derived from normal human arteries and according to the method of MaCarthy et al. (J. Cell. Biol. 97, 772-777 (1983)). That is, a Transwell Chamber (Costar Co., registered trademark) was used to measure the inhibitory action. The chamber was divided into two layers, upper and lower, by a 8 µm pore size membrane filter (PVP - free polycarbonate filter, Nucleopore Co., registered trademark). The filter was precoated on its lower surface with 5 µg of rat tail collagen type 1 (Becton Dickinson Co.) To the upper chamber (100 µl) was added a 1.5 × 10^6/ml suspension of cells (DMEM (made by Flow Laboratories Co.) containing 0.1% BSA (made by Nakalai Tesque Co.) In the lower chamber (600 µl) was placed the same solution diluted by human PDGF (made by Becton Dickinson) to give a final concentration of 10 ng/ml. At this time, the tested compound was added in different concentrations to both the upper and lower chambers. The chambers were incubated at 37°C under 5% CO2 for 6 hours, then the filter was removed, fixed in 99.7% methanol, then stained with hematoxylin and eosin. The cells on the upper surface of the filter were removed by wiping with a cotton swab and the cells that had migrated to the lower surface of the filter were counted under a high output microscope (×200, ×400). Usually, five fields were counted per filter. The migrated cells were shown by the average cell count of five fields ± standard deviation. The significant difference was examined by the Student's two-tailed t test.

Series [2] deals with rat vascular smooth muscle cells (SMC). The series is described as follows: Suppression of PDGF-induced wandering of rat vascular smooth muscle cells in vitro (blind well chamber). The format is cell-based, rats. As to conditions: PDGF 20 ng/ml, 4 hours; for No. of wandering cells: average ± standard error, n=3, control 176±19; for Suppression rate: cell wandering suppression rate = 100 - (T/C x 100). How it is done: Media tissue of the chest arteries of the rats was sampled in accordance with the method of Ross (J. Cell Biol. 50: 172-186, 1971), then was incubated by a Delvecco Modified Eagle Medium (DMEM) containing 10% fetal calf serum in a CO2 incubator (95% air-5% CO2, 37°C, humidity 100%). The fourth generation cultured cells were used for the experiment. The rat vascular smooth muscle cells (SMC) were freed by a 0.008% trypsin-0.01% EDTA solution and made to wander in DMEM containing 0.1% bovine serum albumin. The wandering of the cells was observed using a 24-well blind well chamber made by Neuro Probe. In the lower chambers were placed 100 µl amounts of a mixture of the cell wandering factor (platelet derived growth factor PDGF 20 ng/ml) and the drug. These were covered by a Nuclepore filter (pore size, 8 µm) made by Corning. 100 µl amounts of the incubation solution containing the drug and in which 5 × 10^5 cells/ml of SMC were made to wander were placed in the top chambers and allowed to stand in a CO2 incubator for 4 hours. After the end of the incubation, the smooth muscle cells were immobilized for each filter, then were Propidum dyed. The cells in the lower chambers were counted in four fields under a laser microscope in a 0.48 mm^2 area field. The average was used as the number of wandering cells.
The rate of suppression of cell wandering (%) was found from the following formula. Cell wandering suppression rate (%) = 100 - (T/C × 100) [formula] wherein, C and T respectively show the number of wandering cells at the time of addition of cell wandering factor minus the number of wandering cells at the time of no addition of cell wandering factor and the number of wandering cells at the time of addition of the drug.

A further series deals with SD rats. The series is described as follows: Acute toxicity test, oral. The format is in vivo. As to conditions: male SD rats, 6 weeks old, deaths/animals. How it is done:
(§1) The above test compound was tested for acute toxicity using SD rats (6 weeks old, SPE, male) (p.o.), whereupon the results shown in the following Table 4 were obtained.

The nature of series [3]: Acute toxicity test, oral. The format is in vivo. As to conditions: rat, in vivo, po, male SD rats; judged from Table 4. As to the method:
as §1

Series [4] has as its system Rat Carotid Artery Endothelium. The series is described as follows: Suppression of intima thickening after balloon catheter trauma to rat carotid artery endothelium. The format is in vivo, SD rats. As to conditions: for Intima: from 2 days before to 14 days after surgery, area of thickened intima; for Intima/Media / Media: 14 days after surgery; for Media: area of media; for Suppression rate: intima thickening suppression rate = (1-T/C) x 100 of Intima/Media versus solvent control. As to the method:
The test was performed in the following manner in accordance with the method of Krauz et al. (Lab. Invest., vol. 49, p. 208, 1983). Male SD rats having a body weight of 400 to 500g was used. The neck of each rat was opened under anesthesia by sodium pentobarbitol, then a balloon catheter (Fogarty, 2F) was inserted from the right external carotid artery until the starting portion of the common carotid artery. The balloon was expanded by physiological saline to such an extent causing a light resistance, then the catheter was pulled out in that state up to the carotid artery to give trauma to the intima. This procedure was repeated three times, then the catheter was withdrawn and the external carotid artery was sewn up. After 14 days, the chest was opened under anesthesia by pentobarbitol, refluxing was performed from the left ventricle by physiological saline containing heparin (20 units/ml), then the left common carotid artery was excised and immobilized by neutral formalin solution. The immobilized carotid artery was dyed by Olsein dye, then the areas of the media and thickened portion of the intima were measured by an image resolution device (LUZEX2D).
The test drug began to be administered subcutaneously at a rate of 1.0 µg/rat/hr or 3.2 µg/rat/hr using a miniosmotic pump buried in the back of the rat from two days before the surgery and was continued until 14 days after the surgery. The activity of the drug in suppressing intima thickening was found from the following formula.

[5] abbreviates: 1.0 µg/rat/hr s.c. by miniosmotic pump.

For the compound `CCCC[C@@H](C)C[C@H](O)/C=C/[C@H]1[C@H](O)CC(=O)[C@@H]1SCCCCCC(=O)OC` [Test Compound, (17R)-17,20-dimethyl-7-thiaprostaglandin E1 methyl ester], the Suppression rate in series [1] (10^-7 M) is recorded as 78.0%; in series [1] (10^-8 M), 41.0%; in series [1] (10^-9 M), 22.2%; in series [2] (10^-8 M), 39.2%; in series [2] (10^-9 M), 33.5%; in series [4] (1.0 µg/rat/hr s.c.), 13.1%. Also, the Suppression rate in series [4] (3.2 µg/rat/hr s.c.) was determined as 31.4%. The “No. of wandering cells” value was 19.0±11.8 in series [1] (10^-7 M); 51.0±9.5 in series [1] (10^-8 M); 67.2±15.7 in series [1] (10^-9 M); 107±15##(T) cells/0.48 mm^2 in series [2] (10^-8 M); 117±19##(T) cells/0.48 mm^2 in series [2] (10^-9 M). The No. of deaths in the series on SD rats (20 mg/kg p.o.) is 0/2; in the series on SD rats (100 mg/kg p.o.) it was 1/2; in the series on SD rats (200 mg/kg p.o.), 2/2. Also, the LD50 in series [3] is about 100 mg/kg. The Intima worked out at 0.118 mm² in series [4] (1.0 µg/rat/hr s.c. by miniosmotic pump, average, standard error in the row below) and 0.093 mm² in series [4] (3.2 µg/rat/hr s.c. by miniosmotic pump, P < 0.01 vs control). The Intima/Media in series [4] (setting [5]) was determined as 0.842; in series [4] (3.2 µg/rat/hr s.c. by miniosmotic pump, P < 0.05 vs control), 0.630. The Media amounted to 0.14 mm² in series [4] (setting [5]) and 0.158 mm² in series [4] (3.2 µg/rat/hr s.c. by miniosmotic pump).
With `CCCCC[C@H](O)/C=C/[C@H]1[C@H](O)CC(=O)[C@@H]1CCCCCCC(=O)O` [Prostaglandin E1, reference compound], the “No. of wandering cells” value in series [1] (10^-7 M) is reported as 82.6±17.8; in series [1] (10^-8 M), 82.4±6.9; in series [1] (10^-9 M), 91.0±9.8. The Suppression rate entry in series [1] (10^-9 M) was “No significance”.
